Reference: the OligoGym collection
HELM strings list units from the 5' end as sugar, base in round brackets, then linkage (d deoxyribose, r ribose, m 2'-O-methyl, p phosphodiester). Strings are as the collection lists them, not checked against the first reports. ss, as = sense and antisense strand; [lna] = locked nucleic acid (LNA); [hna] = hexitol nucleic acid; [s4r] = 4'-thioribose; [fl2r] = 2'-fluoro

Conditions: siRNA
Further: test system not given here.

Substance	target mRNA knockdown [%]
RNA1{r(U)p.r(C)p.r(U)p.r(C)p.r(G)p.r(U)p.r(A)p.r(A)p.r(G)p.r(G)p.r(A)p.r(C)p.r(G)p.r(A)p.r(A)p.r(A)p.r(C)p.r(G)p.r(A)p.r(T)p.r(T)}|RNA2{r(U)p.r(C)p.r(G)p.r(U)p.r(U)p.r(U)p.r(C)p.r(G)p.r(U)p.r(C)p.r(C)p.r(U)p.m(U)p.r(A)p.r(C)p.r(G)p.r(A)p.r(G)p.r(A)p.r(T)p.r(T)}$$$RNA1{StrandType:ss}|RNA2{StrandType:as}$	55
RNA1{r(G)p.r(G)p.r(C)p.r(U)p.[fl2r](U)p.r(A)p.r(G)p.r(U)p.[fl2r](C)p.r(A)p.r(C)p.r(U)p.r(C)p.r(C)p.r(U)p.r(C)p.r(U)p.r(U)p.r(C)p.r(T)p.r(T)}|RNA2{r(G)p.r(A)p.r(A)p.r(G)p.r(A)p.r(G)p.r(G)p.r(A)p.r(G)p.[fl2r](U)p.r(G)p.r(A)p.r(C)p.[fl2r](U)p.r(A)p.r(A)p.r(G)p.r(C)p.r(C)p.r(T)p.r(T)}$$$RNA1{StrandType:ss}|RNA2{StrandType:as}$	68
RNA1{r(G)p.[hna](A)p.r(C)p.r(G)p.r(U)p.r(A)p.r(A)p.[hna](A)p.r(C)p.r(G)p.r(G)p.r(C)p.r(C)p.[hna](A)p.r(C)p.r(A)p.[hna](A)p.r(G)p.r(U)p.r(U)p.r(C)}|RNA2{r(A)p.r(C)p.r(U)p.r(U)p.r(G)p.r(U)p.r(G)p.r(G)p.r(C)p.r(C)p.r(G)p.r(U)p.r(U)p.r(U)p.r(A)p.r(C)p.r(G)p.r(U)p.r(C)p.r(G)p.r(C)}$$$RNA1{StrandType:ss}|RNA2{StrandType:as}$	84.9
RNA1{[fl2r](G)p.r(C)p.[fl2r](U)p.r(G)p.[fl2r](A)p.r(A)p.[fl2r](C)p.r(U)p.[fl2r](A)p.r(G)p.[fl2r](U)p.r(C)p.[fl2r](G)p.r(A)p.[fl2r](A)p.r(A)p.[fl2r](G)p.r(A)p.[fl2r](A)p.r(T)p.r(T)}|RNA2{r(U)p.r(U)p.r(C)p.r(U)p.r(U)p.r(U)p.r(C)p.r(G)p.[fl2r](A)p.r(C)p.r(U)p.[fl2r](A)p.r(G)p.r(U)p.r(U)p.r(C)p.[fl2r](A)p.r(G)p.r(C)p.r(T)p.r(T)}$$$RNA1{StrandType:ss}|RNA2{StrandType:as}$	49
RNA1{r(G)p.m(C)p.r(A)p.r(G)p.r(C)p.r(A)p.r(C)p.r(G)p.r(A)p.r(C)p.r(U)p.r(U)p.r(C)p.r(U)p.r(U)p.r(C)p.r(A)p.r(A)p.r(G)p.r(U)p.r(U)}|RNA2{r(C)p.m(U)p.r(U)p.r(G)p.r(A)p.r(A)p.r(G)p.r(A)p.r(A)p.r(G)p.r(U)p.r(C)p.r(G)p.r(U)p.r(G)p.r(C)p.r(U)p.r(G)p.r(C)p.r(U)p.r(U)}$$$RNA1{StrandType:ss}|RNA2{StrandType:as}$	62.7
RNA1{r(C)p.r(G)p.r(A)p.r(G)p.r(U)p.r(G)p.r(U)p.r(C)p.r(U)p.r(A)p.r(A)p.r(C)p.r(G)p.r(G)p.r(G)p.r(A)p.r(G)p.r(C)p.r(C)p.r(T)p.r(T)}|RNA2{r(G)p.r(G)p.r(C)p.r(U)p.r(C)p.r(C)p.r(C)p.r(G)p.r(U)p.m(U)p.r(A)p.r(G)p.r(A)p.r(C)p.r(A)p.r(C)p.r(U)p.r(C)p.r(G)p.r(T)p.r(T)}$$$RNA1{StrandType:ss}|RNA2{StrandType:as}$	68
RNA1{m(C)p.m(G)p.m(U)p.m(A)p.m(C)p.m(G)p.r(C)p.r(G)p.r(G)p.r(A)p.r(A)p.r(U)p.r(A)p.r(C)p.r(U)p.r(U)p.r(C)p.r(G)p.r(A)p.r(T)p.r(T)}|RNA2{r(U)p.r(C)p.r(G)p.r(A)p.r(A)p.r(G)p.r(U)p.r(A)p.r(U)p.r(U)p.r(C)p.r(C)p.r(G)p.r(C)p.r(G)p.r(U)p.r(A)p.r(C)p.r(G)p.r(T)p.r(T)}$$$RNA1{StrandType:ss}|RNA2{StrandType:as}$	94.8
RNA1{[s4r](A)p.[s4r](A)p.r(A)p.r(C)p.r(A)p.r(U)p.r(G)p.r(C)p.r(A)p.r(G)p.r(A)p.r(A)p.r(A)p.r(A)p.r(U)p.r(G)p.r(C)p.r(U)p.r(G)p.r(T)p.r(T)}|RNA2{[s4r](C)p.[s4r](A)p.r(G)p.r(C)p.r(A)p.r(U)p.r(U)p.r(U)p.r(U)p.r(C)p.r(U)p.r(G)p.r(C)p.r(A)p.r(U)p.r(G)p.r(U)p.[s4r](U)p.[s4r](U)p.r(T)p.r(T)}$$$RNA1{StrandType:ss}|RNA2{StrandType:as}$	44.8
RNA1{r(A)p.r(A)p.r(A)p.r(C)p.[fl2r](C)p.[fl2r](A)p.r(G)p.r(G)p.[fl2r](A)p.r(A)p.r(G)p.[fl2r](G)p.r(G)p.r(G)p.r(A)p.r(A)p.r(A)p.r(U)p.r(C)p.r(T)p.r(T)}|RNA2{r(G)p.r(A)p.r(U)p.r(U)p.r(U)p.r(C)p.r(C)p.r(C)p.r(C)p.r(U)p.r(U)p.r(C)p.r(C)p.[fl2r](U)p.[fl2r](G)p.r(G)p.r(U)p.r(U)p.r(U)p.r(T)p.r(T)}$$$RNA1{StrandType:ss}|RNA2{StrandType:as}$	61
RNA1{r(C)p.r(C)p.r(U)p.r(C)p.r(G)p.r(G)p.r(A)p.r(G)p.r(A)p.r(G)p.r(U)p.r(U)p.r(C)p.r(U)p.r(A)p.r(C)p.r(U)p.r(C)p.r(U)p.r(T)p.r(T)}|RNA2{r(A)p.r(G)p.r(A)p.r(G)p.m(U)p.r(A)p.r(G)p.r(A)p.r(A)p.r(C)p.r(U)p.r(C)p.r(U)p.r(C)p.r(C)p.r(G)p.r(A)p.r(G)p.r(G)p.r(T)p.r(T)}$$$RNA1{StrandType:ss}|RNA2{StrandType:as}$	85
RNA1{r(C)p.r(G)p.r(U)p.r(A)p.r(C)p.r(G)p.r(C)p.r(G)p.r(G)p.r(A)p.r(A)p.r(U)p.r(A)p.r(C)p.r(U)p.r(U)p.r(C)p.r(G)p.r(A)p.r(T)p.r(T)}|RNA2{r(U)p.r(C)p.r(G)p.r(A)p.r(A)p.r(G)p.r(U)p.r(A)p.r(U)p.r(U)p.r(C)p.r(C)p.r(G)p.[s4r](C)p.[s4r](G)p.[s4r](U)p.[s4r](A)p.[s4r](C)p.[s4r](G)p.r(T)p.r(T)}$$$RNA1{StrandType:ss}|RNA2{StrandType:as}$	72.2
RNA1{[s4r](C)p.[s4r](G)p.[s4r](U)p.[s4r](A)p.[s4r](C)p.[s4r](G)p.r(C)p.r(G)p.r(G)p.r(A)p.r(A)p.r(U)p.r(A)p.[s4r](C)p.[s4r](U)p.[s4r](U)p.[s4r](C)p.[s4r](G)p.[s4r](A)p.r(T)p.r(T)}|RNA2{r(U)p.r(C)p.r(G)p.r(A)p.r(A)p.r(G)p.r(U)p.r(A)p.r(U)p.r(U)p.r(C)p.r(C)p.r(G)p.r(C)p.r(G)p.r(U)p.r(A)p.r(C)p.r(G)p.r(T)p.r(T)}$$$RNA1{StrandType:ss}|RNA2{StrandType:as}$	91.5
RNA1{r(A)p.r(G)p.r(A)p.r(A)p.r(G)p.m(U)p.r(A)p.r(C)p.m(C)p.r(A)p.r(G)p.r(G)p.r(A)p.r(G)p.m(G)p.r(C)p.r(G)p.r(U)p.r(U)p.r(T)p.r(T)}|RNA2{r(A)p.r(A)p.r(C)p.r(G)p.r(C)p.r(C)p.r(U)p.r(C)p.r(C)p.m(U)p.r(G)p.r(G)p.m(U)p.r(A)p.r(C)p.r(U)p.r(U)p.r(C)p.r(U)p.r(T)p.r(T)}$$$RNA1{StrandType:ss}|RNA2{StrandType:as}$	68
RNA1{r(C)p.r(U)p.r(U)p.r(A)p.r(C)p.r(G)p.r(C)p.r(U)p.r(G)p.r(A)p.r(G)p.r(U)p.r(A)p.r(C)p.r(U)p.r(U)p.r(C)p.r(G)p.r(A)p.r(T)p.r(T)}|RNA2{r(U)p.r(C)p.r(G)p.r(A)p.r(A)p.r(G)p.r(U)p.r(A)p.r(C)p.r(U)p.r(C)p.r(A)p.[lna](G)p.r(C)p.r(G)p.r(U)p.r(A)p.r(A)p.r(G)p.r(T)p.r(T)}$$$RNA1{StrandType:ss}|RNA2{StrandType:as}$	65
RNA1{m(C)p.r(U)p.m(A)p.r(G)p.m(U)p.r(C)p.m(G)p.r(A)p.m(A)p.r(A)p.m(G)p.r(A)p.m(A)p.r(A)p.m(A)p.r(C)p.m(G)p.r(G)p.m(G)p.r(T)p.r(T)}|RNA2{r(C)p.r(C)p.r(C)p.r(G)p.r(U)p.r(U)p.r(U)p.r(U)p.r(C)p.r(U)p.r(U)p.r(U)p.r(C)p.r(G)p.m(A)p.r(C)p.r(U)p.m(A)p.r(G)p.r(T)p.r(T)}$$$RNA1{StrandType:ss}|RNA2{StrandType:as}$	23
RNA1{r(G)p.[fl2r](A)p.r(A)p.r(A)p.[fl2r](C)p.[fl2r](U)p.r(G)p.r(G)p.[fl2r](U)p.[fl2r](A)p.[fl2r](C)p.[fl2r](U)p.[fl2r](U)p.[fl2r](U)p.[fl2r](C)p.[fl2r](C)p.[fl2r](C)p.[fl2r](C)p.[fl2r](C)p.r(T)p.r(T)}|RNA2{r(G)p.r(G)p.r(G)p.r(G)p.r(G)p.r(A)p.r(A)p.r(A)p.r(G)p.r(U)p.r(A)p.r(C)p.r(C)p.r(A)p.r(G)p.r(U)p.r(U)p.r(U)p.r(C)p.r(T)p.r(T)}$$$RNA1{StrandType:ss}|RNA2{StrandType:as}$	60
RNA1{r(C)p.[fl2r](U)p.r(G)p.r(A)p.r(C)p.r(C)p.r(G)p.r(G)p.r(A)p.r(A)p.[fl2r](G)p.r(C)p.r(G)p.r(C)p.r(U)p.[fl2r](U)p.r(A)p.r(A)p.r(A)p.r(T)p.r(T)}|RNA2{r(U)p.r(U)p.[fl2r](U)p.r(A)p.r(A)p.r(G)p.r(C)p.r(G)p.r(C)p.r(U)p.r(U)p.r(C)p.r(C)p.r(G)p.r(G)p.r(U)p.[fl2r](C)p.r(A)p.r(G)p.r(T)p.r(T)}$$$RNA1{StrandType:ss}|RNA2{StrandType:as}$	85
RNA1{r(G)p.m(C)p.r(A)p.r(G)p.r(A)p.r(G)p.r(A)p.r(A)p.r(U)p.r(C)p.m(U)p.r(A)p.r(C)p.r(C)p.r(U)p.r(U)p.r(U)p.r(C)p.r(C)p.r(T)p.r(T)}|RNA2{r(G)p.r(G)p.r(A)p.r(A)p.r(A)p.r(G)p.r(G)p.m(U)p.r(A)p.r(G)p.r(A)p.r(U)p.r(U)p.r(C)p.r(U)p.r(C)p.m(U)p.r(G)p.r(C)p.r(T)p.r(T)}$$$RNA1{StrandType:ss}|RNA2{StrandType:as}$	75
RNA1{r(G)p.r(U)p.r(A)p.r(U)p.r(C)p.r(C)p.r(G)p.r(A)p.r(A)p.r(G)p.r(A)p.r(C)p.r(G)p.r(A)p.r(A)p.r(G)p.r(C)p.m(U)p.r(A)p.r(T)p.r(T)}|RNA2{m(U)p.r(A)p.r(G)p.r(C)p.r(U)p.r(U)p.r(C)p.r(G)p.r(U)p.r(C)p.r(U)p.r(U)p.r(C)p.r(G)p.r(G)p.r(A)p.m(U)p.r(A)p.r(C)p.r(T)p.r(T)}$$$RNA1{StrandType:ss}|RNA2{StrandType:as}$	95
RNA1{r(C)p.r(U)p.r(A)p.r(G)p.r(A)p.r(G)p.r(G)p.r(A)p.r(U)p.r(C)p.r(U)p.r(U)p.r(G)p.r(A)p.r(A)p.r(G)p.r(A)p.r(C)p.r(C)p.r(T)p.r(T)}|RNA2{r(G)p.r(G)p.r(U)p.r(C)p.r(U)p.r(U)p.[fl2r](C)p.r(A)p.r(A)p.r(G)p.r(A)p.r(U)p.r(C)p.r(C)p.r(U)p.r(C)p.[fl2r](U)p.r(A)p.r(G)p.r(T)p.r(T)}$$$RNA1{StrandType:ss}|RNA2{StrandType:as}$	95
